Values quoted from earlier work in patent US6362007B1, “Methylated, SMD homologous peptides, reactive with the antibodies from sera of living beings affected with systemic lupus erythematosus” (Innogenetics N.V., priority 1997, dated 2002).

System: antibodies in SmD positive sera
Conditions: James et al. 1994; synthetic octapeptides of SmD1

| Substance | SmD positive sera (precipitin positive) reactive |
| --- | --- |
| amino acid 82-90: additional SmD1 epitope in the region of amino acid 82-90 (James et al. 1994) (DVEPKVKSK; UniProt P62314 82-90, looked up, fragment) | 7 of 9 |
| octapeptides 92-112: SmD1 sequence spanning synthetic octapeptides 92-112 (James et al. 1994) (REAVAGRGRGRGRGRGRGRGR; UniProt P62314 92-112, looked up, fragment) | 8 of 9 |
